Results from PubChem BioAssay (NCI).
Values joined by “and” are separate entries in the source; they are usually repeats but may differ in a detail not shown here. Identical values can stand only once.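 Growth conditions: 96-well plates. Treatment: test compound, 48 hours, 5 concentrations. Analysis: linear interpolation between bracketing concentrations; unreached endpoints set to highest concentration. GI50 is the concentration that inhibits growth by half. TGI marks complete inhibition of growth.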

What was measured:
Test in all cases: DTP human tumour cell line panel, 48 h
HCT-15 colon = system: HCT-15 colon
LOX IMVI melanoma = system: LOX IMVI melanoma
SF-295 CNS = system: SF-295 CNS
T-47D breast = system: T-47D breast
HCC-2998 colon = system: HCC-2998 colon
HCT-116 colon = system: HCT-116 colon
SNB-19 CNS = system: SNB-19 CNS
HT29 colon = system: HT29 colon
HS 578T breast = system: HS 578T breast
OVCAR-4 ovarian = system: OVCAR-4 ovarian

Compound | GI50 (HCT-15 colon) [µM] | TGI (HCT-15 colon) | GI50 (LOX IMVI melanoma) [µM] | TGI (LOX IMVI melanoma) | GI50 (SF-295 CNS) [µM] | TGI (SF-295 CNS) [µM] | GI50 (T-47D breast) [µM] | TGI (T-47D breast) [µM] | GI50 (HCC-2998 colon) [µM] | TGI (HCC-2998 colon) | GI50 (HCT-116 colon) [µM] | TGI (HCT-116 colon) | GI50 (SNB-19 CNS) [µM] | TGI (SNB-19 CNS) | GI50 (HT29 colon) | TGI (HT29 colon) | GI50 (HS 578T breast) [µM] | TGI (HS 578T breast) [µM] | GI50 (OVCAR-4 ovarian) [µM] | TGI (OVCAR-4 ovarian) [µM]
COc1cc2c3c(cccc3c1)C(=O)N(CCN1CCCC1)C2=O | 2.63 | > 100 µM | 1.68 | 4.42 µM | 2.46 | 6.44 | 2.5 | 8.76 | 2.63 | 7.19 µM | 0.753 | > 100 µM | 2.83 | 58.6 µM | 1.79 µM | 20.2 µM | 3.98 | 13 | – | –
Cc1nn(-c2ccc(F)cc2)c2ncnc(Nc3ccc(NC(=O)Nc4ccc(Cl)c(C(F)(F)F)c4)cc3)c12 | 2.73 | 12.5 µM | 1.96 | 4.48 µM | 2.25 | 6.17 | 1.73 | 5.27 | 2.57 | 10.6 µM | 1.51 | 5.07 µM | 2.93 | 10.2 µM | 2.76 µM | 9.82 µM | 2.66 | 9.47 | 2.46 | 7.13
CC(=O)OCC1OC(O[C@@H]2C[C@H]3C(C)(C)[C@H](OC(C)=O)CC[C@]3(C)[C@H]3CCC4=C([C@@H](C)C[C@@H](O)[C@H](O)C(C)(C)O)CC[C@@]4(C)[C@@]32C)C(O)C(O)C1O (some centres undefined) | 17.1 | 30.8 µM | 12.5 | 25 µM | 17.5 | 31.6 | 16.5 | 30.3 | 12 | 25.2 µM | 14.2 | 27.2 µM | 14.3 | 27.7 µM | 16.6 µM | 30.2 µM | 15.2 | 32.8 | 17 | 31.1
C#Cc1cnc(=O)n(C2CC(O)C(CO)O2)c1 (centres undefined) | > 100 | > 100 µM | > 100 | > 100 µM | > 100 | > 100 | > 100 | > 100 | > 100 | > 100 µM | > 100 | > 100 µM | – | > 23 µM | – | – | > 100 | > 100 | > 100 | > 100
COc1cc2ncn(-c3cc(OCc4ccccc4Cl)c(C(N)=O)s3)c2cc1OC | 0.269 | > 25 µM | 0.169 | > 25 µM | 0.186 | > 11.2 | 3.78 | > 25 | 0.488 | > 25 µM | 0.233 | > 22.1 µM | 1 | > 25 µM | 0.0921 µM | > 25 µM | 0.609 | 5.77 | 2.09 | > 25
COc1cc(C(=O)NC2c3ccccc3-c3ccccc32)c(N)cc1OCc1ccccc1 | > 74.8 | > 100 µM | 63.6 | > 100 µM | 15.4 | 41 | 29.5 | > 100 | > 100 | > 100 µM | 20.3 | > 82.7 µM | 22.6 | 58 µM | 69.7 µM | > 100 µM | 14.5 | 79.1 | 5.16 | 32.2
O=c1cc(-c2cccc(F)c2)[nH]c2cc3c(cc12)OCO3 | 0.29 | 12.1 µM and > 24.9 µM | 0.326 | 6.4 µM and > 54.4 µM | 0.141 | – | – | > 100 | 0.152 | 0.357 µM and 0.538 µM | 0.22 | 2.91 µM and 15.7 µM | 0.324 | 75 µM and > 45.3 µM | 0.69 µM and 0.172 µM | 3.23 µM and 0.705 µM | – | 0.181 | – | > 68.1
CC(CO)(CO)N=Cc1cc(I)cc(I)c1O | – | 34.8 µM | – | 24.2 µM | – | 47.3 | – | > 100 | – | – | – | 31.3 µM | – | 48.9 µM | – | 44.6 µM | – | 74 | – | 37.2
COc1ccc(-c2cc(-c3cc(Cl)ccc3Cl)nc3[nH]c(-c4cc(F)c(Cl)cc4Cl)cc(=O)c23)cc1 | 17.1 | 56.1 µM | 15.3 | 34.4 µM | 23.8 | > 100 | > 100 | > 100 | 15.1 | 32.3 µM | 9.69 | 24.7 µM | 64.1 | > 100 µM | 39.2 µM | > 100 µM | 8.19 | 50.4 | > 100 | > 100
O=C(NNc1nc2c(F)cccc2n2cccc12)c1cnccn1 | 0.178 | > 48.2 µM | 0.3 | 5.83 µM | 0.401 | 16 | 0.509 | > 34.3 | 0.867 | 28.6 µM | 0.214 | 23.7 µM | 0.545 | > 100 µM | 0.604 µM | 50.3 µM | 7.05 | 80.4 | 0.469 | 11
NC(CO)Cc1cnc[nH]1 (centres undefined) | > 100 | > 100 µM | > 100 | > 100 µM | > 100 | > 100 | > 100 | > 100 | > 100 | > 100 µM | > 100 | > 100 µM | > 100 | > 100 µM | > 100 µM | > 100 µM | > 100 | > 100 | – | > 10
CC1(C)N=C(N)N=C(N)N1c1ccc(CCCCc2ccc(S(=O)(=O)F)cc2)cc1 | 3.16 | > 100 µM | 0.488 | 15 µM | 5.71 | > 54.2 | 2.09 | 10.3 | 4.55 | 26.7 µM | 0.373 | 15.8 µM | 2.58 | 19.4 µM | 0.4 µM | 21.3 µM | 13.2 | 46 | 8.23 | > 86.5
CN(C)CC(=O)N1CCC(c2ccc(NC(=O)c3ncc(C#N)[nH]3)c(C3=CCCCC3)c2)CC1 | 2.71 | 9.22 µM | 3.17 | 12.7 µM | 3.75 | 15.7 | 11.9 | 28.8 | 5.74 | 19 µM | 3.97 | 14.1 µM | 11.8 | 25.2 µM | 2.8 µM | 10.2 µM | 2.18 | 12.4 | 10.1 | 23
